Assay [1] concerns the target Serine/threonine-protein kinase PAK 1 (Homo sapiens, UniProt Q13153). In words: Inhibition of TEV protease fused 6His-tagged PAK1 KD (249 to 545 residues) (unknown origin) expressed in Sf21 cells by Z-LYTE biochemical assay.
Assay [2] has as its target T1, Serine/threonine-protein kinase PAK 4 (Homo sapiens, UniProt O96013). The assay is described as follows: Inhibition of PAK4 (unknown origin) by Z-LYTE biochemical assay.
Target sequence in this assay (O96013 whole entry): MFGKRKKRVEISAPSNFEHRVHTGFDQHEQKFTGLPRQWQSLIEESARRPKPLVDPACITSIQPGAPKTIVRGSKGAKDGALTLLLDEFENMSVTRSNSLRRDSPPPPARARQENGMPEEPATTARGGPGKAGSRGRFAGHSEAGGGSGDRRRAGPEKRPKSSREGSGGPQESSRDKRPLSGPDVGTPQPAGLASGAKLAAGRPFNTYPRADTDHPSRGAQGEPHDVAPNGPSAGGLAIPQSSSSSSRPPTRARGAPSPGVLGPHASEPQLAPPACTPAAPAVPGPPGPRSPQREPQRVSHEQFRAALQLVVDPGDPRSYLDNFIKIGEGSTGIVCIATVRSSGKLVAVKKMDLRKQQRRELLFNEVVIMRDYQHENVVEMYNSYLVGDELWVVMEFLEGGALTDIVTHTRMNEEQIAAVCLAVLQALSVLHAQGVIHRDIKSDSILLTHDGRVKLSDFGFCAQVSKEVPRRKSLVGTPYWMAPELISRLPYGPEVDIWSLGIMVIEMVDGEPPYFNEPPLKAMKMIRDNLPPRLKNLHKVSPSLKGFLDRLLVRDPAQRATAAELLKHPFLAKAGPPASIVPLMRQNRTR
Assay [3] concerns SC4. In words: Antiproliferative activity against mouse SC4 [Mouse schwannoma] cells assessed as reduction in cell viability at 1 uM measured upto 96 hrs by coulter counter analysis. The assay is classed as functional, cell-based.
Assay [4] relates to SC4. The assay is described as follows: Induction of cell cycle arrest in mouse SC4 [Mouse schwannoma] cells assessed as accumulation of cells at sub-G1 phase at 1 uM measured upto 96 hrs by propidium iodide staining based flow cytometeric analysis. The assay is classed as functional. In general terms: In flow cytometry, cells or beads pass a laser one at a time.
In assay [5] the target is Serine/threonine-protein kinase PAK 5 (Homo sapiens) (UniProt Q9P286). As to conditions: dose 100.0 nM.
Description: Inhibition of PAK7 (unknown origin) at 100 nM by Z-LYTE biochemical assay relative to control
Assay [6] addresses Tyrosine-protein kinase Yes (Homo sapiens) (UniProt P07947). As to conditions: dose 100.0 nM.
Description: Inhibition of YES1 (unknown origin) at 100 nM by Z-LYTE biochemical assay relative to control
The test system of assay [7] is SC4. The assay is described as follows: Downregulation of CSF1R expression in mouse SC4 [Mouse schwannoma] cells by Western blotting analysis. It counts as functional, cell-based. For orientation: In western blotting, separated proteins are transferred to a membrane and probed.
Assay [8] addresses Serine/threonine-protein kinase PAK 2 (Homo sapiens) (UniProt Q13177). As to conditions: dose 100.0 nM.
Description: Inhibition of PAK2 (unknown origin) at 100 nM by Z-LYTE biochemical assay relative to control
For assay [9], the target named is Serine/threonine-protein kinase PAK 1 (Mus musculus, UniProt O88643).
Description: Inhibition of PAK1 in mouse SC4 [Mouse schwannoma] cells assessed as reduction in p-PAK1 at serine 144 residue at 1 to 5 uM incubated for 2 hrs by Western blotting analysis
For assay [10], the target named is T1, Serine/threonine-protein kinase PAK 4. As to conditions: dose 100.0 nM.
Target sequence in this assay (O96013 whole entry, looked up): as the sequence (O96013 whole entry) above
Description: Inhibition of PAK4 (unknown origin) at 100 nM by Z-LYTE biochemical assay relative to control
Assay [11] can be described thus: Inhibition of PAK1 V342F mutant (unknown origin) in presence of ATP by KinaseGlo assay.
In assay [12] the test system is SC4. The assay is described as follows: Antitumor activity against Nf2 knockout mouse SC4 [Mouse schwannoma] cells harbouring pLuc-mCherry implanted in NOD/SCID mouse assessed as reduction in tumor weight at 100 mg/kg, po qd administered for 14 days. It counts as functional, organism-based. As to conditions: time 14.0 day.
The nature of assay [13]: Induction of cell cycle arrest in mouse SC4 [Mouse schwannoma] cells assessed as accumulation of cells at S phase at 1 uM measured upto 96 hrs by propidium iodide staining based flow cytometeric analysis (reference value: 27%). It counts as functional.
Assay [14] addresses Serine/threonine-protein kinase PAK 6 (Homo sapiens) (UniProt Q9NQU5). As to conditions: dose 100.0 nM.
Description: Inhibition of PAK6 (unknown origin) at 100 nM by Z-LYTE biochemical assay relative to control
For assay [15], the system named is SC4. The assay is described as follows: Antitumor activity against Nf2 knockout mouse SC4 [Mouse schwannoma] cells harbouring pLuc-mCherry implanted in NOD/SCID mouse assessed as reduction in tumor growth at 100 mg/kg, po qd administered for 14 days by bioluminescence imaging analysis. As to conditions: time 14.0 day. The assay is classed as functional, organism-based.

Assay [16] has as its target Proto-oncogene tyrosine-protein kinase receptor Ret (Homo sapiens) (UniProt P07949). As to conditions: dose 100.0 nM.
Description: Inhibition of RET (unknown origin) at 100 nM by Z-LYTE biochemical assay relative to control
Assay [17] can be described thus: Induction of cell cycle arrest in mouse SC4 [Mouse schwannoma] cells assessed as accumulation of cells at G1 phase at 1 uM measured upto 96 hrs by propidium iodide staining based flow cytometeric analysis (reference value: 50%). The assay is classed as functional.
Assay [18] is described as follows: Inhibition of PAK1 V342Y mutant (unknown origin) in presence of ATP by KinaseGlo assay. (In general: In Kinase-Glo more light means more ATP remaining.)
The test system of assay [19] is SC4. In words: Downregulation of TEK1 expression in mouse SC4 [Mouse schwannoma] cells by Western blotting analysis. The assay is classed as functional, cell-based.
Assay [20] is described as follows: Induction of cell cycle arrest in mouse SC4 [Mouse schwannoma] cells assessed as accumulation of cells at G2/M phase at 1 uM measured upto 96 hrs by propidium iodide staining based flow cytometeric analysis (reference value: 22%). The assay is classed as functional.
Assay [21] concerns SC4. The assay is described as follows: Downregulation of YES1 expression in mouse SC4 [Mouse schwannoma] cells by Western blotting analysis. The assay is classed as functional, cell-based.
For assay [22], the system named is SC4. In words: Downregulation of RET expression in mouse SC4 [Mouse schwannoma] cells by Western blotting analysis. The assay is classed as functional, cell-based.
In assay [23] the target is Macrophage colony-stimulating factor 1 receptor (Homo sapiens) (UniProt P07333). As to conditions: dose 100.0 nM.
Description: Inhibition of CSF1R (unknown origin) at 100 nM by Z-LYTE biochemical assay relative to control
For assay [24], the target named is Angiopoietin-1 receptor (Homo sapiens) (UniProt Q02763). As to conditions: dose 100.0 nM.
Description: Inhibition of TEK (unknown origin) at 100 nM by Z-LYTE biochemical assay relative to control

Each structure is given as a SMILES string. Activity calls are given as the source filed them. The rule behind the calls is not given here. Some results are limits rather than exact numbers.

Sequence of Serine/threonine-protein kinase PAK 1 (Homo sapiens, UniProt Q13153) (Q13153 whole entry, the tested form may be a part): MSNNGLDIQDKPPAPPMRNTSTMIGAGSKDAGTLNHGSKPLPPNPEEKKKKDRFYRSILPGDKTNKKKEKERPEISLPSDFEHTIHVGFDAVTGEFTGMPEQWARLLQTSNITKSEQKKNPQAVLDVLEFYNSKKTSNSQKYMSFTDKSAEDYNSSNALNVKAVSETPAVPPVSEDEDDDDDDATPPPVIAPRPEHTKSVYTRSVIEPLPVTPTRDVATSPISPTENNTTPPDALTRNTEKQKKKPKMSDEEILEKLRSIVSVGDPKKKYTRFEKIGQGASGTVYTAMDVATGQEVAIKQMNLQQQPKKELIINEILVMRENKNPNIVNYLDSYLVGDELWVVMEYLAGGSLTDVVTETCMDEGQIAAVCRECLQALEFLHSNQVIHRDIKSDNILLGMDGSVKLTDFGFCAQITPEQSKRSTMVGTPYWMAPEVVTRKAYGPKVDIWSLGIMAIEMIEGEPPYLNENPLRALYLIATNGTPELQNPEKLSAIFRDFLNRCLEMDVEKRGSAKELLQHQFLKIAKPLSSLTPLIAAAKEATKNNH
Sequence of Serine/threonine-protein kinase PAK 1 (Mus musculus, UniProt O88643) (O88643 whole entry): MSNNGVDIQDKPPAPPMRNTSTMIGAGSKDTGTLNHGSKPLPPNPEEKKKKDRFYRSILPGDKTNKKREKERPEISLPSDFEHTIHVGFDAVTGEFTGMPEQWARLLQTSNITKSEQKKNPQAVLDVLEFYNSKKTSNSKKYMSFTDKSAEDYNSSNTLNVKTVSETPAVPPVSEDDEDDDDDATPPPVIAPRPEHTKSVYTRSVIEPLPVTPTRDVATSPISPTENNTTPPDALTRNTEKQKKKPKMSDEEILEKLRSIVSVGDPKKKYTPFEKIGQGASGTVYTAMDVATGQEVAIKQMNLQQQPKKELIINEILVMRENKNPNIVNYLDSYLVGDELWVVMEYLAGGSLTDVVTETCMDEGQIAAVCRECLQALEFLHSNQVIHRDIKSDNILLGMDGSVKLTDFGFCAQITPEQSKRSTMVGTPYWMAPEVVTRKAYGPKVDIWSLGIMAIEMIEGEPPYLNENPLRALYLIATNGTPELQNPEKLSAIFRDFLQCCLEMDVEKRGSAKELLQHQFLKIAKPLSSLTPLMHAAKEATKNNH
Sequence of Tyrosine-protein kinase Yes (Homo sapiens) (P07947 2-543 limits assumed): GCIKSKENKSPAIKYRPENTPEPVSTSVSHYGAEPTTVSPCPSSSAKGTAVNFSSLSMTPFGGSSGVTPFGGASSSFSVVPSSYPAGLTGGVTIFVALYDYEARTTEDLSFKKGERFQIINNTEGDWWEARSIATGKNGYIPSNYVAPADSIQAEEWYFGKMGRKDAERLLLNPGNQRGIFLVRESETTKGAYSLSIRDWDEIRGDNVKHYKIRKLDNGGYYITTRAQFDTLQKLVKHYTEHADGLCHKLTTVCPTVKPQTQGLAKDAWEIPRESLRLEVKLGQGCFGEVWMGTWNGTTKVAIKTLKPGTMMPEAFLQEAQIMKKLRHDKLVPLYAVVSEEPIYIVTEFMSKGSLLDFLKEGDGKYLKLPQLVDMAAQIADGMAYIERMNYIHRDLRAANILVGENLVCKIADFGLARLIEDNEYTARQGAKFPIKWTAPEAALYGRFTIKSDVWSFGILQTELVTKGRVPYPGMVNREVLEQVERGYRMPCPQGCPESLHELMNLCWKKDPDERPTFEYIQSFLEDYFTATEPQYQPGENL
Sequence of Serine/threonine-protein kinase PAK 5 (Homo sapiens) (Q9P286 whole entry, looked up): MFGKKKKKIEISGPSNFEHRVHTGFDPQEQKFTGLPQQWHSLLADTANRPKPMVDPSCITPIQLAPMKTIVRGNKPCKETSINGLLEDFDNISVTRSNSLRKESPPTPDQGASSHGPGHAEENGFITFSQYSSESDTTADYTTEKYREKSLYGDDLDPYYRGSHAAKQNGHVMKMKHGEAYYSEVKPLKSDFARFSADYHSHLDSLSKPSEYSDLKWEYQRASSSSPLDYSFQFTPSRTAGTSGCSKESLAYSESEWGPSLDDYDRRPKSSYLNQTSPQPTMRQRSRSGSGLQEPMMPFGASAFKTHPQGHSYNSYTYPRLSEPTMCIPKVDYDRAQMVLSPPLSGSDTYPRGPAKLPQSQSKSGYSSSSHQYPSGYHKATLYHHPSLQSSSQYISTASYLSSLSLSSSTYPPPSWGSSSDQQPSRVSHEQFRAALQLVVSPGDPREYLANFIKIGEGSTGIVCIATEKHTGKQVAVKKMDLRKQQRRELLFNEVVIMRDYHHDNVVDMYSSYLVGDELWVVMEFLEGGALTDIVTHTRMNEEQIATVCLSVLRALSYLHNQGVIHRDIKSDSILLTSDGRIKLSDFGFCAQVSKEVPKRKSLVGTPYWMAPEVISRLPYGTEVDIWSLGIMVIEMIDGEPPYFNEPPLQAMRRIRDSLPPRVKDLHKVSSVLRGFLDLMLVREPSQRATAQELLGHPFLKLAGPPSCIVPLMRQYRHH
Sequence of Proto-oncogene tyrosine-protein kinase receptor Ret (Homo sapiens) (P07949 whole entry): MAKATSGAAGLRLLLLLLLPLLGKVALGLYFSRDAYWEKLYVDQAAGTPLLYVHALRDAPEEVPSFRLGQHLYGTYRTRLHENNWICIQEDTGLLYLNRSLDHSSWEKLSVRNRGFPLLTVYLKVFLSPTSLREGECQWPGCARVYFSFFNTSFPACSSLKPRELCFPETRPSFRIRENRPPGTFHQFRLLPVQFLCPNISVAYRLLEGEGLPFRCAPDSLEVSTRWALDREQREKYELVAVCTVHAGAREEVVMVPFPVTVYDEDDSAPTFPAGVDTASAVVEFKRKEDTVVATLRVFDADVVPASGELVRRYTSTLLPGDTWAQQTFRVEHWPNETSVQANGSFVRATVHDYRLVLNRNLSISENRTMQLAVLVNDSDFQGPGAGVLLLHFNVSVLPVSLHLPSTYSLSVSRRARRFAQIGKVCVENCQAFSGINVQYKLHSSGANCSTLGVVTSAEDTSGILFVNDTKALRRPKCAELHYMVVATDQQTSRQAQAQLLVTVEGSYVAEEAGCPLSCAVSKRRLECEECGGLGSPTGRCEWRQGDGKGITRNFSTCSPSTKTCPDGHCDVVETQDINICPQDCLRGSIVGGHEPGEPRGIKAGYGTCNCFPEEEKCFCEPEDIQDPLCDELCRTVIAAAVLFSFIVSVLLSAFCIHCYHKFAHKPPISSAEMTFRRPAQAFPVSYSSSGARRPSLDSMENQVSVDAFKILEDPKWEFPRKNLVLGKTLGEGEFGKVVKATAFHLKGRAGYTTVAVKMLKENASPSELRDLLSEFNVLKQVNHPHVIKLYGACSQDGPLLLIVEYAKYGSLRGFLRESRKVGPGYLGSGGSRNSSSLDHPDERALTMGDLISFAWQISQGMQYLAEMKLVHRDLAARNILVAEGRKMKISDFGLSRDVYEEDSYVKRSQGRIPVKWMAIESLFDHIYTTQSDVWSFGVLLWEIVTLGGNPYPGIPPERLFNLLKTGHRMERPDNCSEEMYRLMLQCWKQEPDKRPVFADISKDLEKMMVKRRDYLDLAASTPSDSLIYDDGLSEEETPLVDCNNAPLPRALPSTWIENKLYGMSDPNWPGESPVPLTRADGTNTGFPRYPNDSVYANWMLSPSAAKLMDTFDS
Sequence of Macrophage colony-stimulating factor 1 receptor (Homo sapiens) (P07333 whole entry): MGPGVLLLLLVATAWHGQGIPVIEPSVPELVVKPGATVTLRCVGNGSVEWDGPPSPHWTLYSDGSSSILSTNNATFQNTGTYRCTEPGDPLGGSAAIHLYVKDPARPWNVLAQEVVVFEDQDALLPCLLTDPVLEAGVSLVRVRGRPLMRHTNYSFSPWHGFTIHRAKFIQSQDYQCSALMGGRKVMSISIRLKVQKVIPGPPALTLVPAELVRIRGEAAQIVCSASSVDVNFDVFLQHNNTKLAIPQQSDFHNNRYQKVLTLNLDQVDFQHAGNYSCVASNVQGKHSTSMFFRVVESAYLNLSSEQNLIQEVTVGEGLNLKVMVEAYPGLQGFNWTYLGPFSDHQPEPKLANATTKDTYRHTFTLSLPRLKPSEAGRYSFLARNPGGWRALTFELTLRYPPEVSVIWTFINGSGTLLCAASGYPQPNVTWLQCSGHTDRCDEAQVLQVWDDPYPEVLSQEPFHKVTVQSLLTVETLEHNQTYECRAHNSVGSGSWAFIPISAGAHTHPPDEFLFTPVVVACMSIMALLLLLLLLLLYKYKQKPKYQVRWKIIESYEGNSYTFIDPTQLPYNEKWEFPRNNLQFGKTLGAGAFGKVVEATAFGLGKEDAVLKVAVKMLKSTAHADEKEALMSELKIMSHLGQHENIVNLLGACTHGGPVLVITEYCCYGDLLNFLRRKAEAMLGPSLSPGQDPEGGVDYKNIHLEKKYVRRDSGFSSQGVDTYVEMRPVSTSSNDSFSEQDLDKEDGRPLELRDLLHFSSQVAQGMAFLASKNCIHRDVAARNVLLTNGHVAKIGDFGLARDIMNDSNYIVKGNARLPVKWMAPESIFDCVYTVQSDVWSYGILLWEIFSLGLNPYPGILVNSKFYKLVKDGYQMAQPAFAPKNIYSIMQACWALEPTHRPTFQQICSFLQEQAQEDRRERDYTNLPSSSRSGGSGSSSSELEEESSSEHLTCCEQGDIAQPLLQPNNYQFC

In the case of `CCn1c(=O)c(-c2ccc(Cl)cc2Cl)cc2cnc(Nc3ccc(N4CCN(C)CC4)cc3)nc21`, the IC50 (as a rule, the point on the concentration scale where inhibition reaches its midpoint) in assay [1] was found to be 20 nM; in assay [2] it was 559 nM.

On to `Cc1nc(Nc2n[nH]c3c2CN(C(=O)N[C@H](CN(C)C)c2ccccc2)C3(C)C)c2sccc2n1`, for which the result in the assay on SC4 [3] was Active.

For the molecule `CCn1c(=O)c(-c2ccc(-c3cncs3)cc2Cl)cc2cnc(Nc3ccc(N4CCN(C)CC4)cc3)nc21.Cl`, the outcome with SC4 [4] was inactive. The outcome with SC4 [3], in the assay with SC4 [7], with SC4 [12], in the assay with SC4 [15], with SC4 [19] and in the assay on SC4 [21] was Active. The outcome in the assay with SC4 [22] was Active. For the same molecule, the inhibition – broadly, the percentage by which the read-out fell short of the control – turned out to be 8% in assay [5]; 87% in assay [6]; 93% in [8]; 0% in assay [10]; 23% in assay [14]; 82% in assay [16]. Further, the inhibition in [23] amounted to 91%; in assay [24] it was 87%. Moreover, the IC50 in assay [9] was 70 nM; in assay [11], more than 3000 nM; in assay [18], more than 2000 nM; in assay [2] it was more than 10000 nM. The figures for the Activity in [13], in assay [17] and in assay [20] were 12%, 74% and 11%, respectively.

With `CN1CCN(c2ccc(Nc3ncc4ccc(=O)n(C5CCCC5)c4n3)cc2)CC1`, the 50% inhibitory concentration (IC50) in [1] came out at 483 nM; in [2], 580 nM.

(Values after ChEMBL document CHEMBL5653616, “FRAX597, a small molecule inhibitor of the p21-activated kinases, inhibits tumorigenesis of neurofibromatosis type 2 (NF2)-associated Schwannomas” (J Biol Chem, 2013).)
